How the values were obtained:
Assay type in all cases: functional
Leishmania donovani = experiment: In vivo anti-leishmanial activity to Leishmania donovani infected hamster after intraperitoneal dose of 50 mg/kg X 5 on day 7th; conditions: ip
[1] = Tested in vivo for anti-leishmanial activity against Leishmania donovani infected hamster intraperitoneal dose of 25 mg/kg X 5 on day 7th; conditions: ip
[2] = Tested in vivo for anti-leishmanial activity against Leishmania donovani infected hamster intraperitoneal dose of 100 mg/kg X 5 on day 7th; conditions: ip
[3] = Tested in vivo for anti-leishmanial activity against Leishmania donovani infected hamster auratus after oral dose of 25 mg/kg X 5 on day 7th
[4] = Tested in vivo for anti-leishmanial activity against Leishmania donovani infected hamster auratus after oral dose of 50 mg/kg X 5 on day 7th

Compound	inhibition in vivo at 50 mg/kg (Leishmania donovani) [%]	also measured
NCCCN1CCN(c2ccccc2)CC1	37.2	
NCCCN1CCC(c2ccccc2)CC1	66	
N=C(N)NCCCN1CCCCC1	42.1	
CC1CCN(CCCN)CC1	54.5	
CCN1CCCN(CCCN2CCC(C)CC2)C1=O	25	
COC(=O)/N=C(\NCCCN1CCN(c2ccccc2)CC1)NC(=O)OC	73.8	
NCCCN1CCOCC1	45.8	
CN1CCN(CCCN)CC1	66.9	
COC(=O)/N=C(\NCCCN1CCC(c2ccccc2)CC1)NC(=O)OC	66.5	
CN1CCN(CCCN2CCCNC2=O)CC1	52.1	
COC(=O)/N=C(\NCCCN1CCCCC1)NC(=O)OC	56.2	
COC(=O)/N=C(\NCCCN1CCC(C)CC1)NC(=O)OC	78.4	inhibition in vivo at 25 mg/kg [1]: 80.9%; inhibition in vivo at 100 mg/kg [2]: 46.4%; inhibition in vivo at 25 mg/kg [3]: 77.6%; inhibition in vivo at 50 mg/kg [4]: 76.8%
N=C(N)NCCCN1CCC(c2ccccc2)CC1	57.7	
CN1CCN(CCCN=C(N)N)CC1	45.1	
N#CCCNCCCN1CCN(c2ccccc2)CC1	71	inhibition in vivo at 25 mg/kg [1]: 71.2%
COC(=O)/N=C(\NCCCN1CCC(c2ccccn2)CC1)NC(=O)OC	72.8	inhibition in vivo at 25 mg/kg [1]: 73.2%
CC1CCN(CCCNCCC#N)CC1	45	
COC(=O)/N=C(\NCCCN1CCOCC1)NC(=O)OC	80.2	
N#CCCNCCCN1CCC(c2ccccc2)CC1	43.4	
CN1CCN(CCCNCCC#N)CC1	78.1	
N#CCCNCCCN1CCCCC1	64.8	
NCCCN1CCCCC1	52.4	
CC1CCN(CCCN2CCCNC2=O)CC1	60.8	
NCCCN1CCC(c2ccccn2)CC1	48.7	
O=C1NCCCN1CCCN1CCCCC1	43	
CCN1CCCN(CCCN2CCCCC2)C1=O	41.2	
COC(=O)/N=C(\NCCCN1CCN(C)CC1)NC(=O)OC	85.5	
CC1CCN(CCCN=C(N)N)CC1	62.2	

From ChEMBL document CHEMBL1129877, “Design, synthesis and biological evaluation of 1,3-diaminopropanes: a new class of polyamine analogs as leishmanicidal agents” (1997)
